Like-named read-outs stand apart in the source and are kept apart here.
System: HCMV
Format: cell-based
Settings: FIG. 7A
Procedure, shortened: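 Viral protein levels come from parallel reaction monitoring on a Q Exactive HF: trypsin digests of infected-cell lysates, quantified as summed transition areas, normalized to host control peptides, averaged across peptides per protein. Cells were MRC5 fibroblasts, infected at MOI 3 (HSV-1 or HCMV) after 12 h compound pretreatment, with re-dosing every 24 h.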
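Wherever TRM2 (P16792) protein level is given: each peptide scaled to its average across all runs.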
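Wherever UL29 (P16764) protein level is given: each peptide scaled to its average across all runs.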
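Wherever UL31 (P16848) protein level is given: each peptide scaled to its average across all runs.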
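Wherever UL88 (P16731) protein level is given: each peptide scaled to its average across all runs.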

Oc1ccc(C=Cc2cc(O)cc(O)c2)cc1 [Resveratrol]
UL122 (P19893) protein level (timepoint 48, IE): 0.07155 | UL123 (P13202) protein level (timepoint 48, IE): 0.9494 | CVC1 (P16799) protein level (timepoint 48, L): 0.3339 | GO (P16750) protein level (timepoint 48, L): 0.02075 | IR11 (P16809) protein level (timepoint 48, L): 0.3219 | MCP (P16729) protein level (timepoint 48, L): 0.008603 | SCP (Q7M6N6) protein level (timepoint 48, L): 0.008886 | TRM2 (P16792) protein level (timepoint 48, L): 0.03458 | UL22A (P16845) protein level (timepoint 48, L): 0.2188 | UL25 (P16761) protein level (timepoint 48, L): 0.07603 | UL29 (P16764) protein level (timepoint 48, L): 0.5648 | UL30 (P16765) protein level (timepoint 48, L): 0.14 | UL31 (P16848) protein level (timepoint 48, L): 0.3217 | UL43 (P16781) protein level (timepoint 48, L): 0.06887 | UL52 (P16793) protein level (timepoint 48, L): 0.09774 | UL80 (P16753) protein level (timepoint 48, L): 0.04182 | UL82 (P06726) protein level (timepoint 48, L): 0.2191 | UL88 (P16731) protein level (timepoint 48, L): 0.09401 | UL94 (P16800) protein level (timepoint 48, L): 0.1811 | UL99 (P13200) protein level (timepoint 48, L): 0.09897 | UL103 (P16734) protein level (timepoint 48, L): 0.1489 | UL117 (P16770) protein level (timepoint 48, L): 0.4909 | gL (P16832) protein level (timepoint 48, L): 0.05817 | gM (P16733) protein level (timepoint 48, L): 0.04711 | gN (P16795) protein level (timepoint 48, L): 0.08482 | DUT (P16824) protein level (timepoint 48, LL): 0.2262 | IR12 (P16810) protein level (timepoint 48, LL): 0.2614 | TRM3 (P16732) protein level (timepoint 48, LL): 0.02426 | TRX1 (P16783) protein level (timepoint 48, LL): 0.01259 | TRX2 (P16728) protein level (timepoint 48, LL): 0.01003 | UL24 (P16760) protein level (timepoint 48, LL): 0.1046 | UL40 (P16780) protein level (timepoint 48, LL): 1.098 | UL47 (P16784) protein level (timepoint 48, LL): 0.04257 | UL49 (P16786) protein level (timepoint 48, LL): 0.91 | UL69 (P16749) protein level (timepoint 48, LL): 0.3024 | UL70 (P17149) protein level (timepoint 48, LL): 0.5546 | UL83 (P06725) protein level (timepoint 48, LL): 0.03671 | UL132 (P69338) protein level (timepoint 48, LL): 0.2027 | US15 (P09718) protein level (timepoint 48, LL): 1.334 | CVC2 (P16726) protein level (timepoint 72, DE): 0.05308 | DBP (P17147) protein level (timepoint 72, DE): 0.2031 | HELI (P16736) protein level (timepoint 72, DE): 0.7626 | IR01 (P09710) protein level (timepoint 72, DE): 0.4495 | NEC2 (P16791) protein level (timepoint 72, DE): 0.231 | RIR1 (P16782) protein level (timepoint 72, DE): 0.1696 | TRM1 (P16724) protein level (timepoint 72, DE): 0.1736 | UL4 (P17146) protein level (timepoint 72, DE): 0.1863 | UL26 (P16762) protein level (timepoint 72, DE): 0.087 | UL32 (P08318) protein level (timepoint 72, DE): 0.09834 | UL34 (P16812) protein level (timepoint 72, DE): 0.1945 | UL35 (P16766) protein level (timepoint 72, DE): 0.0668 | UL38 (P16779) protein level (timepoint 72, DE): 0.6571 | UL44 (P16790) protein level (timepoint 72, DE): 0.1077 | UL48 (P16785) protein level (timepoint 72, DE): 0.0769 | UL54 (P08546) protein level (timepoint 72, DE): 0.8921 | UL71 (P16823) protein level (timepoint 72, DE): 0.4201 | UL78 (P16751) protein level (timepoint 72, DE): 0.4371 | UL84 (P16727) protein level (timepoint 72, DE): 0.1807 | UL95 (P16801) protein level (timepoint 72, DE): 0.4887 | UL96 (P16787) protein level (timepoint 72, DE): 0.2804 | UL97 (P16788) protein level (timepoint 72, DE): 0.2884 | UL98 (P16789) protein level (timepoint 72, DE): 0.2614 | UL102 (P16827) protein level (timepoint 72, DE): 1.1 | UL104 (P16735) protein level (timepoint 72, DE): 0.1108 | UL112/UL113 (P17151) protein level (timepoint 72, DE): 0.3912 | UL114 (P16769) protein level (timepoint 72, DE): 1.097 | UL119/UL118 (P16739) protein level (timepoint 72, DE): 0.2241 | UL128 (P16837) protein level (timepoint 72, DE): 0.03713 | US8 (P09730) protein level (timepoint 72, DE): 1.041 | US9 (P09729) protein level (timepoint 72, DE): 1.966 | US12 (P09721) protein level (timepoint 72, DE): 0.2709 | US13 (P09720) protein level (timepoint 72, DE): 0.5064 | US14 (P09719) protein level (timepoint 72, DE): 0.1413 | US22 (P09722) protein level (timepoint 72, DE): 0.5654 | US23 (P09701) protein level (timepoint 72, DE): 0.5216 | US24 (P09700) protein level (timepoint 72, DE): 0.3422 | gB (P06473) protein level (timepoint 72, DE): 0.2078 | IRS1 (P09715) protein level (timepoint 72, IE): 1.155 | TRS1 (P09695) protein level (timepoint 72, IE): 1.081 | UL13 (P16755) protein level (timepoint 72, IE): 0.4777 | UL36 (P16767) protein level (timepoint 72, IE): 0.8125 | UL37 (P16778) protein level (timepoint 72, IE): 0.998 | UL122 (P19893) protein level (timepoint 72, IE): 0.0988 | UL123 (P13202) protein level (timepoint 72, IE): 0.8573 | CVC1 (P16799) protein level (timepoint 72, L): 0.4295 | GO (P16750) protein level (timepoint 72, L): 0.03881 | IR11 (P16809) protein level (timepoint 72, L): 0.253 | MCP (P16729) protein level (timepoint 72, L): 0.01144 | SCP (Q7M6N6) protein level (timepoint 72, L): 0.004632 | TRM2 (P16792) protein level (timepoint 72, L): 0.02287 | UL22A (P16845) protein level (timepoint 72, L): 0.2623 | UL25 (P16761) protein level (timepoint 72, L): 0.1265 | UL29 (P16764) protein level (timepoint 72, L): 0.4756 | UL30 (P16765) protein level (timepoint 72, L): 0.1344 | UL31 (P16848) protein level (timepoint 72, L): 0.3595 | UL43 (P16781) protein level (timepoint 72, L): 0.07284 | UL52 (P16793) protein level (timepoint 72, L): 0.1143 | UL76 (P16725) protein level (timepoint 72, L): 0.0261 | UL80 (P16753) protein level (timepoint 72, L): 0.05404 | UL82 (P06726) protein level (timepoint 72, L): 0.2813 | UL87 (P16730) protein level (timepoint 72, L): 0.03862 | UL88 (P16731) protein level (timepoint 72, L): 0.1555 | UL94 (P16800) protein level (timepoint 72, L): 0.2402 | UL99 (P13200) protein level (timepoint 72, L): 0.1374 | UL103 (P16734) protein level (timepoint 72, L): 0.1294 | UL117 (P16770) protein level (timepoint 72, L): 0.3032 | gH (P12824) protein level (timepoint 72, L): 0.1717 | gL (P16832) protein level (timepoint 72, L): 0.07772 | gM (P16733) protein level (timepoint 72, L): 0.06954 | gN (P16795) protein level (timepoint 72, L): 0.07119 | IR12 (P16810) protein level (timepoint 72, LL): 0.182 | TRM3 (P16732) protein level (timepoint 72, LL): 0.02749 | TRX1 (P16783) protein level (timepoint 72, LL): 0.01995 | TRX2 (P16728) protein level (timepoint 72, LL): 0.01998 | UL24 (P16760) protein level (timepoint 72, LL): 0.1072 | UL40 (P16780) protein level (timepoint 72, LL): 0.6851 | UL47 (P16784) protein level (timepoint 72, LL): 0.08828 | UL49 (P16786) protein level (timepoint 72, LL): 1.209 | UL69 (P16749) protein level (timepoint 72, LL): 0.3758 | UL70 (P17149) protein level (timepoint 72, LL): 0.682 | UL83 (P06725) protein level (timepoint 72, LL): 0.03846 | UL132 (P69338) protein level (timepoint 72, LL): 0.215 | US15 (P09718) protein level (timepoint 72, LL): 0.6869

Reference: patent US20240027453A1, “METHOD FOR DETECTION AND QUANTITATIVE MONITORING OF INFECTIONS WITH HERPESVIRUSES” (The Trustees of Princeton University, priority 2020, published 2024)
